Results published in PubChem BioAssay (NCI).
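Growth conditions: 96-well plates. Treatment: test compound, 48 hours, 5 concentrations. Analysis: linear interpolation between bracketing concentrations; unreached endpoints set to highest concentration. Definition used: TGI = concentration required for complete inhibition of growth.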

How the values were obtained:
Assay in all cases: NCI-60 cell line screen, 48 h
[1] = system: SF-539 CNS
[2] = system: TK-10 renal
[3] = system: HL-60(TB) leukemia
[4] = system: A549 NSCLC
[5] = system: A498 renal
[6] = system: PC-3 prostate
[7] = system: ACHN renal
[8] = system: MDA-MB-435
[9] = system: SNB-19 CNS
[10] = system: SW-620 colon
[11] = system: MDA-N
[12] = system: LOX IMVI melanoma
[13] = system: OVCAR-4 ovarian
[14] = system: HT29 colon
[15] = system: NCI/ADR-RES ovarian
[16] = system: MOLT-4 leukemia
[17] = system: K-562 leukemia
[18] = system: HCT-15 colon
[19] = system: 786-0 renal
[20] = system: CCRF-CEM leukemia
[21] = system: IGROV1 ovarian
[22] = system: SK-MEL-5 melanoma
[23] = system: SF-268 CNS
[24] = system: DU-145 prostate
[25] = system: MCF7 breast
[26] = system: OVCAR-3 ovarian
[27] = system: OVCAR-5 ovarian
[28] = system: UO-31 renal
[29] = system: MALME-3M melanoma
[30] = system: OVCAR-8 ovarian
[31] = system: U251 CNS
[32] = system: CAKI-1 renal
[33] = system: UACC-62 melanoma
[34] = system: HCT-116 colon
[35] = system: NCI-H23 lung
[36] = system: EKVX NSCLC
[37] = system: RXF 393 renal
[38] = system: HOP-92 NSCLC
[39] = system: MDA-MB-231 breast
[40] = system: RPMI-8226 leukemia
[41] = system: M14 melanoma
[42] = system: COLO 205 colon
[43] = system: SK-MEL-2 melanoma
[44] = system: T-47D breast
[45] = system: SNB-75 CNS
[46] = system: SK-MEL-28 melanoma
[47] = system: HS 578T breast
[48] = system: HOP-62 NSCLC
[49] = system: SK-OV-3 ovarian
[50] = system: NCI-H460 lung
[51] = system: KM12 colon
[52] = system: HCC-2998 colon
[53] = system: NCI-H522 lung
[54] = system: UACC-257 melanoma
[55] = system: SF-295 CNS
[56] = system: NCI-H226 lung
[57] = system: SR leukemia
[58] = system: SN12C renal
[59] = system: BT-549 breast

SMILES: CC(C)N1CN(c2ccccc2)C2(CCN(CCCC(=O)c3ccc(F)cc3)CC2)C1=O
- TGI [1]: 22.1 µM
- TGI [2]: > 49.5 µM
- TGI [3]: 40.7 µM
- TGI [4]: > 100 µM
- TGI [5]: 7.06 µM
- TGI [6]: > 71 µM
- TGI [7]: 42.5 µM
- TGI [8]: 27.6 µM
- TGI [9]: > 56 µM
- TGI [10]: 24.2 µM
- TGI [11]: 36.6 µM
- TGI [12]: 20.2 µM
- TGI [13]: > 76 µM
- TGI [14]: 7.85 µM
- TGI [15]: 31.1 µM
- TGI [16]: 47.3 µM
- TGI [17]: 69.7 µM
- TGI [18]: 40.5 µM
- TGI [19]: > 60.7 µM
- TGI [20]: 9.61 µM
- TGI [21]: 17.5 µM
- TGI [22]: 6.53 µM
- TGI [23]: > 63.4 µM
- TGI [24]: 24.2 µM
- TGI [25]: 13.1 µM
- TGI [26]: 65.6 µM
- TGI [27]: 30.9 µM
- TGI [28]: 58 µM
- TGI [29]: 29.6 µM
- TGI [30]: > 82 µM
- TGI [31]: > 100 µM
- TGI [32]: 34.7 µM
- TGI [33]: 38.7 µM
- TGI [34]: 5.52 µM
- TGI [35]: 28.1 µM
- TGI [36]: > 100 µM
- TGI [37]: > 82.2 µM
- TGI [38]: 16.6 µM
- TGI [39]: 26.6 µM
- TGI [40]: 31.1 µM
- TGI [41]: 31.1 µM
- TGI [42]: 1.7 µM
- TGI [43]: 28.3 µM
- TGI [44]: 40.8 µM
- TGI [45]: > 91.6 µM
- TGI [46]: 36.7 µM
- TGI [47]: 49.1 µM
- TGI [48]: 11.9 µM
- TGI [49]: > 100 µM
- TGI [50]: 54.2 µM
- TGI [51]: 42.1 µM
- TGI [52]: 27.7 µM
- TGI [53]: 49.8 µM
- TGI [54]: 8.94 µM
- TGI [55]: 26.9 µM
- TGI [56]: 46.4 µM
- TGI [57]: 46.1 µM
- TGI [58]: > 55.4 µM

SMILES: O=[N+]([O-])c1cc(Cl)ccc1Sc1ccccc1
- TGI [1]: > 100 µM
- TGI [2]: > 100 µM
- TGI [3]: > 100 µM
- TGI [4]: > 100 µM
- TGI [5]: > 100 µM
- TGI [59]: > 100 µM
- TGI [6]: > 100 µM
- TGI [7]: > 100 µM
- TGI [8]: > 100 µM
- TGI [9]: > 100 µM
- TGI [10]: > 100 µM
- TGI [11]: > 100 µM
- TGI [12]: > 100 µM
- TGI [13]: > 100 µM
- TGI [14]: > 100 µM
- TGI [15]: > 100 µM
- TGI [16]: > 100 µM
- TGI [17]: > 100 µM
- TGI [18]: > 100 µM
- TGI [19]: > 100 µM
- TGI [20]: > 100 µM
- TGI [21]: > 100 µM
- TGI [22]: > 100 µM
- TGI [23]: > 100 µM
- TGI [24]: > 100 µM
- TGI [25]: > 100 µM
- TGI [26]: > 100 µM
- TGI [27]: > 100 µM
- TGI [28]: > 100 µM
- TGI [29]: > 100 µM
- TGI [30]: > 100 µM
- TGI [31]: > 100 µM
- TGI [32]: > 100 µM
- TGI [33]: > 100 µM
- TGI [34]: > 100 µM
- TGI [35]: > 100 µM
- TGI [36]: > 100 µM
- TGI [37]: > 100 µM
- TGI [38]: > 100 µM
- TGI [39]: > 100 µM
- TGI [40]: > 100 µM
- TGI [41]: > 100 µM
- TGI [42]: > 100 µM
- TGI [43]: > 100 µM
- TGI [44]: > 100 µM
- TGI [45]: 87 µM
- TGI [46]: > 100 µM
- TGI [47]: > 100 µM
- TGI [48]: > 100 µM
- TGI [49]: > 100 µM
- TGI [50]: > 100 µM
- TGI [51]: > 100 µM
- TGI [52]: > 100 µM
- TGI [53]: > 100 µM
- TGI [54]: > 100 µM
- TGI [55]: > 100 µM
- TGI [56]: > 100 µM
- TGI [58]: > 100 µM

SMILES: COc1cc(/C=C2\CCC(C)/C(=C\c3cc(OC)c(OC)c(OC)c3)C2=O)cc(OC)c1OC (centres undefined)
- TGI [2]: 14 µM
- TGI [4]: > 100 µM
- TGI [5]: 6.06 µM
- TGI [59]: 3.53 µM
- TGI [6]: 11.1 µM
- TGI [7]: 13.1 µM
- TGI [8]: > 100 µM
- TGI [9]: 18.4 µM
- TGI [10]: > 100 µM
- TGI [11]: 16.1 µM
- TGI [12]: > 100 µM
- TGI [14]: 10.9 µM
- TGI [17]: 6.26 µM
- TGI [18]: 6.57 µM
- TGI [19]: > 100 µM
- TGI [20]: 4.1 µM
- TGI [21]: 6.58 µM
- TGI [22]: 5.7 µM
- TGI [23]: 34.4 µM
- TGI [24]: > 100 µM
- TGI [25]: > 100 µM
- TGI [27]: 14.2 µM
- TGI [28]: > 100 µM
- TGI [30]: 9.52 µM
- TGI [31]: > 100 µM
- TGI [32]: 6.71 µM
- TGI [33]: 6.89 µM
- TGI [34]: > 100 µM
- TGI [36]: 16.3 µM
- TGI [37]: 6.36 µM
- TGI [38]: > 100 µM
- TGI [39]: > 100 µM
- TGI [40]: 0.901 µM
- TGI [41]: 4.42 µM
- TGI [42]: 5.2 µM
- TGI [43]: 3.37 µM
- TGI [44]: > 100 µM
- TGI [45]: 50.8 µM
- TGI [46]: 25.2 µM
- TGI [47]: > 100 µM
- TGI [48]: 9.3 µM
- TGI [49]: 62 µM
- TGI [51]: 8.46 µM
- TGI [54]: 21.3 µM
- TGI [58]: 19.2 µM

SMILES: COc1cc([N+](=O)[O-])c(OC)c2c(Nc3ccc(S(=O)(=O)O)c4cc(S(=O)(=O)O)cc(S(=O)(=O)O)c34)cc(C)nc12
- TGI [1]: > 100 µM
- TGI [2]: > 100 µM
- TGI [3]: > 100 µM
- TGI [4]: > 100 µM
- TGI [5]: > 100 µM
- TGI [59]: > 100 µM
- TGI [6]: > 100 µM
- TGI [8]: > 100 µM
- TGI [10]: > 100 µM
- TGI [11]: > 100 µM
- TGI [12]: > 100 µM
- TGI [14]: > 100 µM
- TGI [15]: > 100 µM
- TGI [16]: > 100 µM
- TGI [19]: > 100 µM
- TGI [20]: > 100 µM
- TGI [21]: > 100 µM
- TGI [22]: > 100 µM
- TGI [23]: > 100 µM
- TGI [24]: > 100 µM
- TGI [25]: > 100 µM
- TGI [26]: > 100 µM
- TGI [27]: > 100 µM
- TGI [28]: > 100 µM
- TGI [29]: > 100 µM
- TGI [30]: > 100 µM
- TGI [31]: > 100 µM
- TGI [32]: > 100 µM
- TGI [33]: > 100 µM
- TGI [34]: > 100 µM
- TGI [35]: > 100 µM
- TGI [36]: > 100 µM
- TGI [37]: > 100 µM
- TGI [39]: > 100 µM
- TGI [41]: > 100 µM
- TGI [42]: > 100 µM
- TGI [43]: > 100 µM
- TGI [44]: > 100 µM
- TGI [45]: > 100 µM
- TGI [46]: > 100 µM
- TGI [47]: > 100 µM
- TGI [48]: > 100 µM
- TGI [49]: > 100 µM
- TGI [51]: > 100 µM
- TGI [53]: > 100 µM
- TGI [54]: > 100 µM
- TGI [56]: > 100 µM
- TGI [58]: > 100 µM
